Patent US20260242419A1, “A CYCLIC PEPTIDE FOR TRAPPING INTERLEUKIN-1 BETA” (Merck Sharp & Dohme LLC, priority 2023, published 2026)
pIC50: −log10 of the molar value. Starred links: 1 amine or outer side, 2 acyl side, 3 side chain; linkers in the order of their positions; H or OH if unused. Non-standard residues stand in square brackets, D forms with d. Residues, ends and D or L forms follow the SMILES beside them. Phe(4-(5-CO2H-2-pyrimidyl)) = N[C@@H](Cc1ccc(-c2ncc(C(=O)O)cn2)cc1)C(=O)O; Phe(4-(4-Ac-piperazinyl)) = CC(=O)N1CCN(c2ccc(C[C@H](N)C(=O)O)cc2)CC1; dPro(4R-(4-pyridylmethyl)) = O=C(O)[C@H]1C[C@@H](Cc2ccncc2)CN1; Ala(piperidin-4-yl) = O=C([C@H](CC1CCN([*:3])CC1)N[*:1])[*:2]; Trp(βS-Me,4-F) = C[C@@H](c1c[nH]c2cccc(F)c12)[C@H](N)C(=O)O; Bip(4'-COOH) = N[C@@H](Cc1ccc(-c2ccc(C(=O)O)cc2)cc1)C(=O)O; Ala(1-bicyclo(1.1.1)pentyl) = N[C@@H](CC12CC(C1)C2)C(=O)O; dPro(4R-Bzl(4-F)) = O=C(O)[C@H]1C[C@@H](Cc2ccc(F)cc2)CN1; X4 = O=C([C@H]1[C@@H](Cc2ccncc2)CCN1[*:1])[*:2]; Ala(morpholin-4-yl) = N[C@@H](CN1CCOCC1)C(=O)O; Ala(pyrimidin-5-yl) = N[C@@H](Cc1cncnc1)C(=O)O; Phe(4-COOH) = N[C@@H](Cc1ccc(C(=O)O)cc1)C(=O)O; X30 = O=C([C@@H](N[*:1])[C@H](O)c1ccncc1)[*:2]; Ala(4-Pyridazinyl) = N[C@@H](Cc1ccnnc1)C(=O)O; Pro(cis-4-F) = O=C(O)[C@@H]1C[C@H](F)CN1; cisHyp = O=C(O)[C@@H]1C[C@H](O)CN1; d(αMeD) = C[C@@](N)(CC(=O)O)C(=O)O; 4Pal = N[C@@H](Cc1ccncc1)C(=O)O; αMeD = C[C@](N)(CC(=O)O)C(=O)O; d(αMeS) = C[C@@](N)(CO)C(=O)O; αMeK = C[C@](N)(CCCCN)C(=O)O; Dab = NCC[C@H](N)C(=O)O; Aib = CC(C)(N)C(=O)O

biological target: T1, IL-1β (Homo sapiens, UniProt P01584); assay: IL-6 assay in MRC5 cells: inhibition of IL-1β induced IL-6 secretion (AlphaLISA); assay type: cell-based; conditions: inhibition of IL-1β induced IL-6 secretion in MRC5 cells; compound pre-incubated 1 hour with recombinant human IL-1β; read-out: MRC5 IC50
T1 construct: purchased BioLegend 579404
Outline: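 Compound was pre-incubated 1 h at ambient temperature with recombinant human IL-1β at 2λ EC80 before adding human lung fibroblast MRC5 cells (3000/well) in EMEM with 0.025% BSA. After overnight culture at 37 °C, 5% CO2, secreted IL-6 in conditioned medium was measured by AlphaLISA; IC50 from 4-parameter logistic fits.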

T1 sequence (P01584 117-269): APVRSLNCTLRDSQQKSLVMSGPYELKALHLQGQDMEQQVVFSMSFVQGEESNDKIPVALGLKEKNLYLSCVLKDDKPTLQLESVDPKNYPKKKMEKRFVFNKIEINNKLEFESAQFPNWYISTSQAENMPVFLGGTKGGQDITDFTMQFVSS

Row | pIC50 | SMILES
1 | 10.77 | C[C@@H](c1c[nH]c2cccc(F)c12)[C@@H]1NC(=O)[C@@H]2C[C@H](F)CN2C(=O)CNC(=O)[C@H](Cc2ccc(C(=O)O)cc2)NC(=O)[C@H](Cc2ccncc2)NC(=O)[C@H](Cc2ccc(-c3ccc(C(=O)O)cc3)cc2)NC(=O)[C@H]2C[C@@H](Cc3ccc(F)cc3)CN2C(=O)CNC(=O)[C@H](CCN)NC(=O)[C@H](CCC(N)=O)NC(=O)[C@H](Cc2c[nH]cn2)NC(=O)C(C)(C)NC(=O)[C@H](Cc2c[nH]c3ccccc23)NC(=O)[C@H](CCC(=O)O)NC(=O)C(C)(C)NC1=O [Example 276] (cyclo([Bip(4'-COOH)][4Pal][Phe(4-COOH)]G[Pro(cis-4-F)][Trp(βS-Me,4-F)][Aib]EW[Aib]HQ[Dab]G[dPro(4R-Bzl(4-F))]))
2 | 10.59 | C[C@@H](c1c[nH]c2cccc(F)c12)[C@@H]1NC(=O)[C@@H]2C[C@H](F)CN2C(=O)CNC(=O)[C@H](Cc2ccc(C(=O)O)cc2)NC(=O)[C@H]([C@H](O)c2ccncc2)NC(=O)[C@H](Cc2ccc(-c3ccc(C(=O)O)cc3)cc2)NC(=O)[C@H]2C[C@@H](Cc3ccc(F)cc3)CN2C(=O)CNC(=O)[C@H](CCN)NC(=O)[C@H](CCC(N)=O)NC(=O)[C@H](Cc2cncnc2)NC(=O)C(C)(C)NC(=O)[C@H](Cc2c[nH]c3ccccc23)NC(=O)[C@H](CO)NC(=O)C(C)(C)NC1=O [Example 274] (cyclo([Bip(4'-COOH)][X30][Phe(4-COOH)]G[Pro(cis-4-F)][Trp(βS-Me,4-F)][Aib]SW[Aib][Ala(pyrimidin-5-yl)]Q[Dab]G[dPro(4R-Bzl(4-F))]))

same assay, conditions: inhibition of IL-1β induced IL-6 secretion in MRC5 cells; read-out: MRC5 IC50

Row | pIC50 | SMILES
3 | 10.40 | C[C@@H](c1c[nH]c2cccc(F)c12)[C@@H]1NC(=O)[C@@H]2C[C@H](F)CN2C(=O)CNC(=O)[C@H](Cc2ccc(C(=O)O)cc2)NC(=O)[C@H](Cc2ccnnc2)NC(=O)[C@H](Cc2ccc(-c3ccc(C(=O)O)cc3)cc2)NC(=O)[C@H]2C[C@@H](Cc3ccc(F)cc3)CN2C(=O)CNC(=O)[C@H](CCN)NC(=O)[C@H](CCC(N)=O)NC(=O)[C@H](Cc2cncnc2)NC(=O)C(C)(C)NC(=O)[C@H](Cc2c[nH]c3ccccc23)NC(=O)[C@H](CCC(=O)O)NC(=O)C(C)(C)NC1=O [Example 116] (cyclo([Bip(4'-COOH)][Ala(4-Pyridazinyl)][Phe(4-COOH)]G[Pro(cis-4-F)][Trp(βS-Me,4-F)][Aib]EW[Aib][Ala(pyrimidin-5-yl)]Q[Dab]G[dPro(4R-Bzl(4-F))]))
4 | 10.46 | CC(C)[C@@H]1NC(=O)C(C)(C)NC(=O)[C@H]([C@@H](C)c2c[nH]c3cccc(F)c23)NC(=O)[C@@H]2C[C@H](F)CN2C(=O)CNC(=O)[C@H](Cc2ccc(C(=O)O)cc2)NC(=O)[C@H](Cc2ccncc2)NC(=O)[C@H](Cc2ccc(-c3ccc(C(=O)O)cc3)cc2)NC(=O)[C@H]2C[C@@H](Cc3ccc(F)cc3)CN2C(=O)CNC(=O)[C@H](CCN)NC(=O)[C@H](CCC(N)=O)NC(=O)[C@H](Cc2cncnc2)NC(=O)[C@](C)(CCCCN)NC(=O)[C@H](Cc2c[nH]c3ccccc23)NC1=O [Example 135] (cyclo([Bip(4'-COOH)][4Pal][Phe(4-COOH)]G[Pro(cis-4-F)][Trp(βS-Me,4-F)][Aib]VW[αMeK][Ala(pyrimidin-5-yl)]Q[Dab]G[dPro(4R-Bzl(4-F))]))
5 | 10.52 | COC[C@@]1(C)NC(=O)[C@H](Cc2c[nH]c3ccccc23)NC(=O)[C@H](CO)NC(=O)C(C)(C)NC(=O)[C@H]([C@@H](C)c2c[nH]c3cccc(F)c23)NC(=O)[C@@H]2C[C@H](F)CN2C(=O)CNC(=O)[C@H](Cc2ccc(C(=O)O)cc2)NC(=O)[C@H](Cc2ccncc2)NC(=O)[C@H](Cc2ccc(-c3ccc(C(=O)O)cc3)cc2)NC(=O)[C@H]2[C@@H](Cc3ccncc3)CCN2C(=O)CNC(=O)[C@H](CCN)NC(=O)[C@H](CCC(N)=O)NC(=O)[C@H](Cc2cncnc2)NC1=O [Example 224] (cyclo([Bip(4'-COOH)][4Pal][Phe(4-COOH)]G[Pro(cis-4-F)][Trp(βS-Me,4-F)][Aib]SW[d(αMeS)](Me)[Ala(pyrimidin-5-yl)]Q[Dab]G[X4]))
6 | 10.82 | C[C@@H](c1c[nH]c2cccc(F)c12)[C@@H]1NC(=O)[C@@H]2C[C@H](F)CN2C(=O)CNC(=O)[C@H](Cc2ccc(C(=O)O)cc2)NC(=O)[C@H](Cc2ccncc2)NC(=O)[C@H](Cc2ccc(-c3ccc(C(=O)O)cc3)cc2)NC(=O)[C@H]2C[C@@H](Cc3ccc(F)cc3)CN2C(=O)CNC(=O)[C@H](CCN)NC(=O)[C@H](CCC(N)=O)NC(=O)[C@H](CC2CCNCC2)NC(=O)[C@@](C)(CC(=O)O)NC(=O)[C@H](Cc2c[nH]c3ccccc23)NC(=O)[C@H](CO)NC(=O)C(C)(C)NC1=O [Example 320] (cyclo([Bip(4'-COOH)][4Pal][Phe(4-COOH)]G[Pro(cis-4-F)][Trp(βS-Me,4-F)][Aib]SW[d(αMeD)][Ala(piperidin-4-yl)]Q[Dab]G[dPro(4R-Bzl(4-F))]))
7 | 10.96 | C[C@@H](c1c[nH]c2cccc(F)c12)[C@@H]1NC(=O)[C@@H]2C[C@H](F)CN2C(=O)CNC(=O)[C@H](Cc2ccc(C(=O)O)cc2)NC(=O)[C@H](Cc2ccncc2)NC(=O)[C@H](Cc2ccc(-c3ccc(C(=O)O)cc3)cc2)NC(=O)[C@H]2[C@@H](Cc3ccncc3)CCN2C(=O)CNC(=O)[C@H](CCN)NC(=O)[C@H](CCC(N)=O)NC(=O)[C@H](Cc2cncnc2)NC(=O)C(C)(C)NC(=O)[C@H](Cc2c[nH]c3ccccc23)NC(=O)[C@H](CO)NC(=O)C(C)(C)NC1=O [Example 326] (cyclo([Bip(4'-COOH)][4Pal][Phe(4-COOH)]G[Pro(cis-4-F)][Trp(βS-Me,4-F)][Aib]SW[Aib][Ala(pyrimidin-5-yl)]Q[Dab]G[X4]))
8 | 10.60 | CC(C)C[C@@H]1NC(=O)[C@@](C)(CO)NC(=O)[C@H](Cc2c[nH]c3ccccc23)NC(=O)[C@H](CO)NC(=O)C(C)(C)NC(=O)[C@H]([C@@H](C)c2c[nH]c3cccc(F)c23)NC(=O)[C@@H]2C[C@H](F)CN2C(=O)CNC(=O)[C@H](Cc2ccc(C(=O)O)cc2)NC(=O)[C@H](Cc2ccncc2)NC(=O)[C@H](Cc2ccc(-c3ccc(C(=O)O)cc3)cc2)NC(=O)[C@H]2C[C@@H](Cc3ccncc3)CN2C(=O)CNC(=O)[C@H](CCN)NC(=O)[C@H](CCC(N)=O)NC1=O [Example 347] (cyclo([Bip(4'-COOH)][4Pal][Phe(4-COOH)]G[Pro(cis-4-F)][Trp(βS-Me,4-F)][Aib]SW[d(αMeS)]LQ[Dab]G[dPro(4R-(4-pyridylmethyl))]))
9 | 10.55 | C[C@@H](c1c[nH]c2cccc(F)c12)[C@@H]1NC(=O)[C@@H]2C[C@H](F)CN2C(=O)CNC(=O)[C@H](Cc2ccc(C(=O)O)cc2)NC(=O)[C@H](Cc2ccncc2)NC(=O)[C@H](Cc2ccc(-c3ccc(C(=O)O)cc3)cc2)NC(=O)[C@H]2C[C@@H](Cc3ccc(F)cc3)CN2C(=O)CNC(=O)[C@H](CCCCN)NC(=O)[C@H](CCC(N)=O)NC(=O)[C@H](Cc2cncnc2)NC(=O)C(C)(C)NC(=O)[C@H](Cc2c[nH]c3ccccc23)NC(=O)[C@H](CCC(=O)O)NC(=O)C(C)(C)NC1=O [Example 9] (cyclo([Bip(4'-COOH)][4Pal][Phe(4-COOH)]G[Pro(cis-4-F)][Trp(βS-Me,4-F)][Aib]EW[Aib][Ala(pyrimidin-5-yl)]QKG[dPro(4R-Bzl(4-F))]))
10 | 10.51 | C[C@@H](c1c[nH]c2cccc(F)c12)[C@@H]1NC(=O)[C@@H]2C[C@H](F)CN2C(=O)CNC(=O)[C@H](Cc2ccc(C(=O)O)cc2)NC(=O)[C@H](CC23CC(C2)C3)NC(=O)[C@H](Cc2ccc(-c3ccc(C(=O)O)cc3)cc2)NC(=O)[C@H]2C[C@@H](Cc3ccncc3)CN2C(=O)CNC(=O)[C@H](CO)NC(=O)[C@H](CCC(N)=O)NC(=O)[C@H](CN2CCOCC2)NC(=O)[C@@](C)(CO)NC(=O)[C@H](Cc2c[nH]c3ccccc23)NC(=O)[C@H](CCC(=O)O)NC(=O)C(C)(C)NC1=O [Example 177] (cyclo([Bip(4'-COOH)][Ala(1-bicyclo(1.1.1)pentyl)][Phe(4-COOH)]G[Pro(cis-4-F)][Trp(βS-Me,4-F)][Aib]EW[d(αMeS)][Ala(morpholin-4-yl)]QSG[dPro(4R-(4-pyridylmethyl))]))
11 | 10.37 | C[C@@H](c1c[nH]c2cccc(F)c12)[C@@H]1NC(=O)[C@@H]2C[C@H](O)CN2C(=O)CNC(=O)[C@H](Cc2ccc(C(=O)O)cc2)NC(=O)[C@H](CC23CC(C2)C3)NC(=O)[C@H](Cc2ccc(-c3ncc(C(=O)O)cn3)cc2)NC(=O)[C@H]2C[C@@H](Cc3ccncc3)CN2C(=O)CNC(=O)[C@H](CCN)NC(=O)[C@H](CCC(N)=O)NC(=O)[C@H](Cc2cncnc2)NC(=O)C(C)(C)NC(=O)[C@H](Cc2c[nH]c3ccccc23)NC(=O)[C@H](CO)NC(=O)C(C)(C)NC1=O [Example 185] (cyclo([Phe(4-(5-CO2H-2-pyrimidyl))][Ala(1-bicyclo(1.1.1)pentyl)][Phe(4-COOH)]G[cisHyp][Trp(βS-Me,4-F)][Aib]SW[Aib][Ala(pyrimidin-5-yl)]Q[Dab]G[dPro(4R-(4-pyridylmethyl))]))
12 | 10.85 | CC(=O)N1CCN(c2ccc(C[C@@H]3NC(=O)[C@H]4C[C@@H](Cc5ccc(F)cc5)CN4C(=O)CNC(=O)[C@H](CCN)NC(=O)[C@H](CCC(N)=O)NC(=O)[C@H](Cc4cncnc4)NC(=O)[C@](C)(CC(=O)O)NC(=O)[C@H](Cc4c[nH]c5ccccc45)NC(=O)[C@H](CO)NC(=O)C(C)(C)NC(=O)[C@H]([C@@H](C)c4c[nH]c5cccc(F)c45)NC(=O)[C@@H]4C[C@H](F)CN4C(=O)CNC(=O)[C@H](Cc4ccc(C(=O)O)cc4)NC(=O)[C@H](Cc4ccncc4)NC3=O)cc2)CC1 [Example 184] (cyclo([Phe(4-(4-Ac-piperazinyl))][4Pal][Phe(4-COOH)]G[Pro(cis-4-F)][Trp(βS-Me,4-F)][Aib]SW[αMeD][Ala(pyrimidin-5-yl)]Q[Dab]G[dPro(4R-Bzl(4-F))]))
